Key:
HepG2 cells = test: Hepatotoxicity in HepG2 cell line (MTT); details: 24 h
Protocol: Thus, it is relevant to study the potential neurotoxicity and hepatotoxicity of the novel dual GSK3β inhibitors-Nrf2 inducers 5a–t.
(§1) Viability was measured as MTT reduction in presence of increasing concentrations of derivatives. Values are expressed as LD50 calculated from dose-response curves of four different concentrations.
HepG2 cells were cultured according to supplier indications in EMEM supplemented with 10 % heat-inactivated FBS, 100 µg/mL streptomycin and 100 units/mL penicillin. Cells were maintained at 37 °C in humidified atmosphere of 95 % air and 5 % CO2. For experimental procedures, cells were cultured in 96-well plates at density of 1x10^5 cells/well. Treatments were performed in 1% FBS medium unless other concentration was specified. Cells were used from 4 up to 13 passages.
(§2) Cells were cultured in 48-well (SH-SY5Y, 1x10^5 cells per well) or 96-well plates (HepG2, 1x10^5 cells per well) for 24 h. […] Control cells were incubated with the same concentration of DMSO (0.1 % final concentration) without any drug.

SH-SY5Y cells = test: Cytotoxicity in SH-SY5Y neuroblastoma cell line (MTT); details: 24 h
Protocol: as §1, §2

Nrf2 = test: Nrf2-dependent luciferase reporter assay in AREc32 cell line; format: cell-based; details: Arec32, 24 h, AREc32 cells, read-out: CD (concentration required to double the luciferase reporter activity)
Protocol: Thereafter, we tested the ability of the compounds to induce the Nrf2 transcription factor. We used an Nrf2-dependent luciferase reporter assay in the AREc32 cell line[45]. Cells were cultured for 24 h and then treated with increasing concentrations of compounds 5a–t (0.3, 3, 10 and 30 μM), including the known inducer sulforaphane, containing an isothiocyanate motive as positive control.
AREc32 cells were plated in 96-well white plates (2 × 10^4 cells/well). After 24 h, cells were incubated with increasing concentrations of each compound in duplicate for 24 h. AREc32 cells express constitutively the plasmid pGL-8xARE that implements 8 copies of the EpRE sequences followed by luciferase reporter gen. Therefore, Nrf2 induction is related to the activation of EpRE sequences, expressing luciferase at the same extent as EpRE sequences are activated. The Luciferase Assay System (Promega E1500), was used according to provider protocol and luminescence was quantified in an Orion II microplate luminometer (Berthold, Germany). Fold induction of luciferase activity was normalized to basal conditions. Data are expressed as CD values, expressing the concentration required to double the luciferase activity. CD values are calculated from dose-response curves generated from fold induction of control conditions vs. inducer concentration and fitted by non-linear regression and data interpolated to 2-fold induction concentration.
Breast cancer cells stably transfected to express luciferase after EpRE sequences MCF-7/AREc32 named AREc32, were kindly provided by Dr. C. Roland Wolf (University of Dundee, UK).^14 AREc32 cells were maintained in DMEM with high glucose-glutamax, supplemented with 10 % FBS, 1 % penicillin-streptomycin (10,000 units), and geneticin (0.8 mg/ml G418) at 37 °C and in a 5 % CO2- air atmosphere.^14
AREc32 cells are constitutively transfected with the pGL-8xARE luciferase reporter gene, inserted after EpRE sequences. Thus, Nrf2 translocation to the nucleus induces the activation of the EpRE sequences, expressing their target phase II antioxidant genes, and expressing luciferase at the same extent.^15 AREc32 cells were plated in 96-well white plates (2X10^4 cells/well). After 24 h, cells were incubated with increasing concentrations of each compound in duplicate for 24 h (dissolved in DMSO to give a final 0.1 % vol/vol concentration of vehicle). Each plate included non-treated cells as basal luciferase expression and tBHQ (10 µM) as positive control. TBHQ is a potent Nrf2 inducer used as control in the development of the AREc32 cells.^14 Transfected clones are selected using G418. AREc32 cells express constitutively the plasmid pGL-8xARE that implements 8 copies of the EpRE sequences followed by a luciferase reporter gene. Therefore, the induction of Nrf2 is proportional to the activation of EpRE sequences, expressing luciferase at the same extent as EpRE sequences are activated. Luciferase production is then assessed by a bioluminescence assay. The Luciferase Assay System (Promega E1500), was used according to the Promega protocol and luminescence was quantified in an Orion II microplate luminometer (Berthold, Germany). Relative Light Units (RLU) were recorded for the contents of each well. Fold induction of luciferase activity was calculated by dividing the RLU obtained for the tests wells for each treatment by the average RLU obtained for the basal conditions. Data are expressed as CD values, expressing the concentration required to double the basal luciferase activity, used to quantify the Nrf2 induction potency. CD values are calculated from dose-response curves generated from fold induction of control conditions vs. inducer concentration and fitted by non-linear regression and data interpolated to value the 2-fold induction concentration, using GraphPad Prism software (San Diego, CA, USA).

primary rat glial cells = test: Nitrite production in LPS-stimulated primary glial cultures (Griess); format: cell-based; details: Glial cell, 24 h pre-incubation, 18 h co-incubation with LPS 1 μg/mL, read-out: IC50 nitrite reduction
From the text: Therefore, we envisaged the study of compounds 5a–t as potential anti-inflammatory agents. We used primary rat glial cells treated with lipopolysaccharide (LPS) to induce the production of nitrites and ROS as a model of glial activation. Nitrite production is directly proportional to the expression of the iNOS, that is over-expressed when LPS activates glial cells. ROS production is proportional to NOX activation after stimulation with LPS. Results are summarized in Table 2 as IC50s of nitrite production reduction and ROS production reduction. We have included sulforaphane as control in all experiments (see the Supporting Information).
Glial cells were pre-incubated with increasing concentrations of compounds for 24 hours. Then, treatments were removed and cells were incubated with LPS (1 μg/mL) alone or in presence of each compound at the desired concentration. Nitrite production was assessed 18 hours later by modified Griess assay. Briefly, samples (150 μl) were mixed with dapsone (75 μl) and NEDA (75 μl), and the mixture was incubated at room temperature for 5 min. Light absorption was measured at 550 nm in a microplate reader (Labtech, Offenburg, Germany). All data were normalized to basal nitrite production, considering this value as 100% of nitrite production. IC50 values were calculated from dose-response curves represented as percentage of nitrite production reduction induced by the different concentrations of each compound.
Mixed glial cultures were obtained from cerebral cortex of 2-5 day-old Sprague-Dawley rats. After removal of blood vessels and meninges, the forebrains were dissociated in DMEM/F12 medium. After mechanical dissociation, cells were plated (3x10^5 cells/ml) in DMEM/F12 medium with 20% fetal bovine serum (FBS) and 1 % penicillin/streptomycin (10,000 units), at 37 °C and in a 5 % CO2-supplemented air atmosphere. After 5 days, medium was substituted by DMEM/F12 medium with 10 % FBS. Cells were cultured for 7-10 days before treatment.
Primary rat glial cells were treated with compounds 5a-t at increasing concentrations (3, 10, 30 and 60 µM) during 24 h. Thereafter, treatments were removed and glial cells were co-incubated with increasing concentrations of each compound and LPS (1 µg/mL) for 18 h more. At the end of this period, supernatant was collected and the presence of nitrites was analyzed by the Griess method with modifications.^20 Each plate included non-treated cells as basal nitrite production, sulforaphane (SFN, 10 µM) as positive control. Briefly, samples (150 µl) were mixed with DAPSONE (75 µl) and NEDA (75 µl), and the mixture was incubated at room temperature for 5 min. Light absorption was measured at 550 nm in a microplate reader (Labtech, Offenburg, Germany). All data were normalized to basal nitrite production, considering this value as 100% of nitrite production. EC50 values were calculated from dose-response curves represented as percentage of nitrite production reduction induced by the different concentrations of each compound. Concentration response curves were fitted by non-linear regression analysis of individual concentration-response curves using GraphPad Prism software (San Diego, CA, USA). EC50 values are expressed as mean ± SEM of four different experiments in triplicate.

EC50 (Nrf2)	IC50 (primary rat glial cells)	SMILES	HepG2 LD50 (HepG2 cells)	SH-SY5Y LD50 (SH-SY5Y cells)
5.38 ± 0.5 µM	5.11 ± 0.65 µM	Cc1[nH]nc2c1C(c1cccc(Cl)c1)C(C#N)=C(N)O2 (stereo not drawn) [Compound 5j, 6-Amino-4-(3-chlorophenyl)-3-methyl-2,4-dihydropyrano[2,3-c]pyrazole-5-carbonitrile]	> 100 µM	> 100 µM
> 30 µM	26.7 ± 1.95 µM	Cc1n[nH]c2c1C(c1ccccc1Br)C(C#N)=C(N)O2 (stereo not drawn) [Compound 5l, 6-Amino-4-(2-bromophenyl)-3-methyl-2,4-dihydropyrano[2,3-c]pyrazole-5-carbonitrile]	> 100 µM	> 100 µM
> 30 µM	43.6 ± 6.45 µM	COc1ccccc1C1C(C#N)=C(N)Oc2n[nH]c(C)c21 (stereo not drawn) [Compound 5b, 6-Amino-4-(2-methoxyphenyl)-3-methyl-2,4-dihydropyrano[2,3-c]pyrazole-5-carbonitrile]	> 100 µM	> 100 µM

Source: paper PMC5374710, “Discovery of the first dual GSK3β inhibitor/Nrf2 inducer. A new multitarget therapeutic strategy for Alzheimer’s disease” (Scientific Reports, 2017)
